Data: the supplement of paper PMC10627819

Assays:
Assay in all cases: fitness (endpoint OD595 vs no drug) (fraction); higher = more growth
[1] = tested on: B. subtilis 168
Method in brief: (§1)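 Fitness was measured as bacterial growth in 384-well plates inoculated at OD595 0.01 (30 µl, or 55 µl for S. pneumoniae). Media were TSB, LB Lennox or CY, at 37 °C. OD595 was read every 30 min for 14 h and background-subtracted against the first reading. Fitness is OD595 at the transition into stationary phase divided by the robust mean of no-drug control wells, capped at 1.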

[2] = tested on: S. aureus DSM 20231
Method in brief: as §1

[3] = tested on: S. aureus Newman
Method in brief: as §1

[4] = tested on: S. pneumoniae D39V
Method in brief: as §1
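Further: OD595 on entry to stationary phase over no-drug wells; at most 1.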

CCCCCCCCCC(=O)N[C@@H](Cc1c[nH]c2ccccc12)C(=O)N[C@H](CC(N)=O)C(=O)N[C@@H](CC(=O)O)C(=O)N[C@@H]1C(=O)NCC(=O)N[C@@H](CCCN)C(=O)N[C@@H](CC(=O)O)C(=O)N[C@H](C)C(=O)N[C@@H](CC(=O)O)C(=O)NCC(=O)N[C@H](CO)C(=O)N[C@@H]([C@H](C)CC(=O)O)C(=O)N[C@@H](CC(=O)c2ccccc2N)C(=O)O[C@@H]1C [Daptomycin] + N[C@@H]1CONC1=O [Cycloserine D]
fitness
Details | first compound 0.125 µg/mL | first compound 0.25 µg/mL | first compound 0.5 µg/mL | first compound 1 µg/mL | first compound 2 µg/mL
[1], partner 0.125 µg/mL | 0.962 | 0.978 | 0.945 | – | –
[1], partner 0.25 µg/mL | 0.903 | 0.923 | 0.886 | – | –
[1], partner 0.5 µg/mL | 0.921 | 0.989 | 0.874 | – | –
[2], partner 0.375 µg/mL | – | – | 0.964 | ≥ 1 | ≥ 1
[2], partner 0.75 µg/mL | – | – | 0.996 | 0.983 | 0.978
[2], partner 1.5 µg/mL | – | – | ≥ 1 | ≥ 1 | ≥ 1
[3], partner 0.375 µg/mL | 0.979 | 0.983 | 0.983 | – | –
[3], partner 0.75 µg/mL | 0.996 | 0.999 | ≥ 1 | – | –
[3], partner 1.5 µg/mL | ≥ 1 | ≥ 1 | 0.993 | – | –

[1], first compound 1 µg/mL, one replicate
Details | fitness
partner 0.125 µg/mL | 0.784
partner 0.25 µg/mL | 0.758
partner 0.5 µg/mL | 0.737

C[C@H]1COc2c(N3CCN(C)CC3)c(F)cc3c(=O)c(C(=O)O)cn1c23 [Levofloxacin] + CC1=C(C(=O)O)N2C(=O)[C@@H](NC(=O)[C@H](N)c3ccccc3)[C@H]2SC1 [Cephalexin]
fitness, one replicate
Details | first compound 0.001 µg/mL | first compound 0.002 µg/mL | first compound 0.0039 µg/mL | first compound 0.2 µg/mL | first compound 0.4 µg/mL | first compound 0.8 µg/mL
[1], partner 0.25 µg/mL | 0.969 | 0.896 | 0.836 | – | – | –
[1], partner 0.5 µg/mL | 0.991 | 0.91 | 0.838 | – | – | –
[1], partner 1 µg/mL | 0.921 | 0.919 | 0.868 | – | – | –
[4], partner 0.125 µg/mL | – | – | – | 0.874 | 0.758 | 0.316
[4], partner 0.25 µg/mL | – | – | – | 0.91 | 0.782 | 0.354
[4], partner 0.5 µg/mL | – | – | – | 0.903 | 0.8 | 0.369

Details | fitness
[1], first compound 0.0312 µg/mL, partner 0.125 µg/mL | 0.0416
[1], first compound 0.0312 µg/mL, partner 0.25 µg/mL | 0.0347
[1], first compound 0.0312 µg/mL, partner 0.5 µg/mL | 0.036
[1], first compound 0.0625 µg/mL, partner 0.125 µg/mL | 0.0518
[1], first compound 0.0625 µg/mL, partner 0.25 µg/mL | 0.037
[1], first compound 0.0625 µg/mL, partner 0.5 µg/mL | 0.043
[1], first compound 0.125 µg/mL, partner 0.125 µg/mL | 0.0423
[1], first compound 0.125 µg/mL, partner 0.25 µg/mL | 0.0386
[1], first compound 0.125 µg/mL, partner 0.5 µg/mL | 0.0448
[4], first compound 0.1725 µg/mL, partner 2 µg/mL | 0.176
[4], first compound 0.1725 µg/mL, partner 4 µg/mL | 0.0529
[4], first compound 0.345 µg/mL, partner 2 µg/mL | 0.103
[4], first compound 0.345 µg/mL, partner 4 µg/mL | 0.001
[4], first compound 0.69 µg/mL, partner 1 µg/mL | 0.235
[4], first compound 0.69 µg/mL, partner 2 µg/mL | 0.0462
[4], first compound 0.69 µg/mL, partner 4 µg/mL | 0.022

C[C@H]1COc2c(N3CCN(C)CC3)c(F)cc3c(=O)c(C(=O)O)cn1c23 [Levofloxacin] + CO[C@@]12[C@H](COC(N)=O)C3=C(C(=O)C(C)=C(N)C3=O)N1C[C@@H]1N[C@@H]12 [Mitomycin C]
fitness, [4]
Details | first compound 0.1725 µg/mL | first compound 0.2 µg/mL | first compound 0.345 µg/mL | first compound 0.4 µg/mL | first compound 0.69 µg/mL | first compound 0.8 µg/mL
partner 0.001075 µg/mL | – | 0.883 | – | 0.777 | – | 0.422
partner 0.002 µg/mL | 0.817 | – | 0.699 | – | 0.404 | –
partner 0.00215 µg/mL | – | 0.871 | – | 0.769 | – | 0.362
partner 0.004 µg/mL | 0.782 | – | 0.687 | – | 0.355 | –
partner 0.0043 µg/mL | – | 0.78 | – | 0.699 | – | 0.331
partner 0.008 µg/mL | 0.694 | – | 0.595 | – | 0.387 | –

CN(C)C(=O)C(CCN1CCC(O)(c2ccc(Cl)cc2)CC1)(c1ccccc1)c1ccccc1 [Loperamide] + CC(=O)NC[C@H]1CN(c2ccc(N3CCOCC3)c(F)c2)C(=O)O1 [Linezolid]
one replicate
Details | fitness
[1], first compound 25 µg/mL, partner 0.0625 µg/mL | 0.584
[1], first compound 50 µg/mL, partner 0.0625 µg/mL | 0.0437
[1], first compound 100 µg/mL, partner 0.0625 µg/mL | 0.0474
[4], first compound 68.57 µg/mL, partner 0.2 µg/mL | 0.91
[4], first compound 68.57 µg/mL, partner 0.4 µg/mL | 0.884
[4], first compound 68.57 µg/mL, partner 0.8 µg/mL | 0.532

Details | fitness
[1], first compound 25 µg/mL, partner 0.125 µg/mL | 0.607
[1], first compound 25 µg/mL, partner 0.25 µg/mL | 0.066
[1], first compound 25 µg/mL, partner 0.5 µg/mL | 0.0361
[1], first compound 50 µg/mL, partner 0.25 µg/mL | 0.0362
[1], first compound 50 µg/mL, partner 0.5 µg/mL | 0.0318
[1], first compound 100 µg/mL, partner 0.125 µg/mL | 0.0357
[1], first compound 100 µg/mL, partner 0.25 µg/mL | 0.0269
[1], first compound 100 µg/mL, partner 0.5 µg/mL | 0.0353
[4], first compound 17.14 µg/mL, partner 0.2 µg/mL | 0.815
[4], first compound 17.14 µg/mL, partner 0.4 µg/mL | 0.709
[4], first compound 17.14 µg/mL, partner 0.8 µg/mL | 0.414
[4], first compound 20 µg/mL, partner 0.105 µg/mL | 0.938
[4], first compound 20 µg/mL, partner 0.21 µg/mL | 0.839
[4], first compound 20 µg/mL, partner 0.42 µg/mL | 0.652
[4], first compound 34.28 µg/mL, partner 0.2 µg/mL | 0.806
[4], first compound 34.28 µg/mL, partner 0.4 µg/mL | 0.701
[4], first compound 34.28 µg/mL, partner 0.8 µg/mL | 0.367
[4], first compound 40 µg/mL, partner 0.105 µg/mL | 0.947
[4], first compound 40 µg/mL, partner 0.21 µg/mL | 0.843
[4], first compound 40 µg/mL, partner 0.42 µg/mL | 0.58
[4], first compound 80 µg/mL, partner 0.42 µg/mL | 0.179

CN(C)C(=O)C(CCN1CCC(O)(c2ccc(Cl)cc2)CC1)(c1ccccc1)c1ccccc1 [Loperamide] + CO[C@@]12[C@H](COC(N)=O)C3=C(C(=O)C(C)=C(N)C3=O)N1C[C@@H]1N[C@@H]12 [Mitomycin C]
[4]
Details | fitness
first compound 17.14 µg/mL, partner 0.002 µg/mL | 0.871
first compound 17.14 µg/mL, partner 0.004 µg/mL | 0.796
first compound 17.14 µg/mL, partner 0.008 µg/mL | 0.662
first compound 20 µg/mL, partner 0.001075 µg/mL | ≥ 1
first compound 20 µg/mL, partner 0.00215 µg/mL | ≥ 1
first compound 20 µg/mL, partner 0.0043 µg/mL | 0.926
first compound 34.28 µg/mL, partner 0.002 µg/mL | 0.843
first compound 34.28 µg/mL, partner 0.004 µg/mL | 0.8
first compound 34.28 µg/mL, partner 0.008 µg/mL | 0.616
first compound 40 µg/mL, partner 0.001075 µg/mL | ≥ 1
first compound 40 µg/mL, partner 0.00215 µg/mL | ≥ 1
first compound 40 µg/mL, partner 0.0043 µg/mL | 0.953
first compound 80 µg/mL, partner 0.001075 µg/mL | 0.804
first compound 80 µg/mL, partner 0.00215 µg/mL | 0.801

[4], first compound 68.57 µg/mL, one replicate
Details | fitness
partner 0.002 µg/mL | 0.814
partner 0.004 µg/mL | 0.712
partner 0.008 µg/mL | 0.672
